Molecular target: human Kv7.2 (Homo sapiens (Human), UniProt O43526)
Test: SyncroPatch 384 electrophysiology, activation of Kv7.2 in CHO cells
Type: cell-based
Conditions: Kv7.2 activation max %, relative to 30 μM ML-213 max activation
Protocol: The potency of Kv7 uotentiators was determined using the SyncroPatch 384 (Nanion) high throughput electrophysiology platform.
CHO cells stably expressing either human Kv7.2, Kv7.4 or Kv7.5/7.3 under a constitutive CMV promoter were used for these studies. Cells were maintained in F12 Hams+1 mM L-glutamine (Hyclone) supplemented with 10% FBS (Sigma), 0.3× NEAA (Non-essential Gamino-acids) and 400ug/ml G418 at 37° C. in 5% CO2. Cells were cultured in T-225 flasks (Nunc) for 2-3 days to reach 85-95% confluence prior to electrophysiological recording.
Earle's balanced salt solution (in mM): 135 NaCl, 5.4 KCl, 5 Glucose, 2 CaCl2), 1 MgCl2, 5 HEPES, pH 7.4. Seal enhancer solution (in mM): 90 NaCl, 3 KCl, 35 CaCl2), 10 MgCl2, 10 HEPES, pH 7.4. Extracellular recording solution (in mM): 71 NaCl, 70 NMDG, 13 KCl, 5 Glucose, 2 CaCl2), 1 MgCl2, 10 HEPES, pH 7.4. Intracellular recording solution (in mM): 130 KF, 20 KCl, 4 EGTA, 10 HEPES, 2 EDTA, 0.01 Escin, pH 7.2.
Cells were harvested for electrophysiological recording upon reaching appropriate confluence. Cells were first washed in DPBS (Hyclone, Cat #SH30028.03) and then 2 ml of Accutase (MP Biomedicals #1000449) was added at 28° C. until ˜90% of cells were suspended. F12 HAM's media+1 mM L-glutamine (Hyclone, SH30026.02) was then added to the flask to dilute the accutase. Cells were then triturated until a single cell suspension was achieved, a cell count was performed, and cells were centrifuged for 2 min. at 1,000 rpm. Media was then aspirated, and cells were resuspended in Earle's balanced salt solution to a concentration of 0.75×10^6 cells/ml and allowed to recover for 25 min at 10° C.
At the beginning of each assay, 20 μl of cell suspension was dispensed into each well of a multi-hole 384-well SyncroPatch chip by the onboard pipettor. Cell sealing was initiated, and seal enhancer solution was added to facilitate seal formation. Upon completion of sealing, cells were washed 3 times with extracellular recording solution and the assay voltage protocol was started. Human Kv7.2, Kv7.4 or Kv7.5/7.3 channels were evaluated using a voltage protocol in which cells were voltage-clamped at a holding potential of −60 mV. Potassium currents were continuously activated with a series of three voltage steps to −30 mV for 3 seconds, 40 mV for 1 second and −90 mV for 4 seconds with 12 seconds between successive voltage sweeps. Potassium currents were measured from the −90 mV repolarizing step. Baseline current was assessed for 3.5 minutes prior to the addition of 5.6 μM zinc pyrithione (1μM for Kv7.4). Kv7.2, Kv7.4 or Kv7.5/7.3 current in the presence of zinc pyrithione was acquired over five minutes to allow channels to reach steady state activity prior to addition of test agents. Channel activity was monitored for three minutes preceding the addition of 30 μM ML-213 (3 minutes) to achieve maximum activation. 150 mM TEA with 10 μM XE-991 was applied for 2 minutes to measure the leak current during maximum inhibition of Kv7.2, Kv7.4 or Kv7.5/7.3 channels.
Example 61 Data Analysis Data were collected on the SyncroPatch platform using PatchControl software (Nanion) and processed and analyzed using DataControl Software (Nanion). Percent activation was calculated from potassium current as follows: The average current for the 5 sweeps in the presence of zinc pyrithione immediately preceding test agent addition was taken as the ‘control’ data. Likewise, the average potassium current in the presence of test agents 5 sweeps immediately preceding addition of 30 μM ML-213 was determined for ‘drug’ data. The average potassium current 5 sweeps immediately prior to addition of 150 mM TEA+10 μM XE-991 was determined for ‘max activation’ data while average currents from 5 sweeps immediately following addition of TEA was determined for ‘max inhibition’ data. […]

Kv7.2 max [%] | Structure (SMILES)
73 | COC12CC(NC(=O)NCc3cccc(OC(F)(F)F)c3)(C1)C2 [Example 1, 1-(3-methoxy-1-bicyclo[1.1.1]pentanyl)-3-[[3-(trifluoromethoxy)phenyl]methyl]urea]
70 | O=C(NCc1cccc(OC(F)(F)F)c1)NC12CC(C(F)(F)F)(C1)C2 [Example 2, 1-[[3-(trifluoromethoxy)phenyl]methyl]-3-[3-(trifluoromethyl)-1-bicyclo[1.1.1]pentanyl]urea]
48 | O=C(N[C@@H](CO)c1cccc(Cl)c1)NC12CC(C(F)(F)F)(C1)C2 [Example 3, 1-[(1R)-1-(3-chlorophenyl)-2-hydroxyethyl]-3-[3-(trifluoromethyl)-1-bicyclo[1.1.1]pentanyl]urea]
64 | COC12CC(NC(=O)NCc3cccc(C(F)(F)F)c3)(C1)C2 [Example 4, 1-(3-methoxy-1-bicyclo[1.1.1]pentanyl)-3-[[3-(trifluoromethyl)phenyl]methyl]urea]
41 | N#Cc1cccc(CNC(=O)NC23CC(C(F)(F)F)(C2)C3)c1 [Example 5, 1-[(3-cyanophenyl)methyl]-3-[3-(trifluoromethyl)-1-bicyclo[1.1.1]pentanyl]urea]
76 | O=C(NCc1cccc(OC(F)(F)F)c1)NC12CC(F)(C1)C2 [Example 6, 1-(3-fluoro-1-bicyclo[1.1.1]pentanyl)-3-[[3-(trifluoromethoxy)phenyl]methyl]urea]
75 | O=C(NCc1cccc(C(F)(F)F)c1)NC12CC(C(F)(F)F)(C1)C2 [Example 7, 1-[3-(trifluoromethyl)-1-bicyclo[1.1.1]pentanyl]-3-[[3-(trifluoromethyl)phenyl]methyl]urea]
57 | COc1cccc([C@H](C)NC(=O)NC23CC(F)(C2)C3)c1 [Example 8, 1-(3-fluoro-1-bicyclo[1.1.1]pentanyl)-3-[(1S)-1-(3-methoxyphenyl)ethyl]urea]
51 | C[C@H](NC(=O)NC12CC(F)(C1)C2)c1cccc(C(F)(F)F)c1 [Example 9, 1-(3-fluoro-1-bicyclo[1.1.1]pentanyl)-3-[(1S)-1-[3-(trifluoromethyl)phenyl]ethyl]urea]
40 | C[C@H](NC(=O)NC12CC(F)(C1)C2)c1cccc(OC(F)(F)F)c1 [Example 10, 1-(3-fluoro-1-bicyclo[1.1.1]pentanyl)-3-[(1S)-1-[3-(trifluoromethoxy)phenyl]ethyl]urea]
80 | O=C(NCc1cccc(C(F)(F)F)c1)NC12CC(F)(C1)C2 [Example 11, 1-(3-fluoro-1-bicyclo[1.1.1]pentanyl)-3-[[3-(trifluoromethyl)phenyl]methyl]urea]
69 | O=C(N[C@@H](CO)c1cccc(Br)c1)NC12CC(C(F)(F)F)(C1)C2 [Example 12, 1-[(1R)-1-(3-bromophenyl)-2-hydroxyethyl]-3-[3-(trifluoromethyl)-1-bicyclo[1.1.1]pentanyl]urea]
48 | N#Cc1cccc(CNC(=O)NC23CC(F)(C2)C3)c1 [Example 13, 1-[(3-cyanophenyl)methyl]-3-(3-fluoro-1-bicyclo[1.1.1]pentanyl)urea]
50 | CC12CC(NC(=O)NCc3cccc(C#N)c3)(C1)C2 [Example 14, 1-[(3-cyanophenyl)methyl]-3-(3-methyl-1-bicyclo[1.1.1]pentanyl)urea]
58 | N#Cc1cccc(CNC(=O)NC23CC(C(F)F)(C2)C3)c1 [Example 15, 1-[(3-cyanophenyl)methyl]-3-[3-(difluoromethyl)-1-bicyclo[1.1.1]pentanyl]urea]
40 | C[C@H](NC(=O)NC12CC(F)(C1)C2)c1cccc(Br)c1 [Example 16, 1-[(1S)-1-(3-bromophenyl)ethyl]-3-(3-fluoro-1-bicyclo[1.1.1]pentanyl)urea]

Kv7.2 max [%] | Structure (SMILES)
69 | O=C(N[C@@H](CO)c1cccc(Br)c1)NC12CC(F)(C1)C2 [Example 17, 1-[(1R)-1-(3-bromophenyl)-2-hydroxyethyl]-3-(3-fluoro-1-bicyclo[1.1.1]pentanyl)urea]
47 | C[C@H](NC(=O)NC12CC(F)(C1)C2)c1cccc(Cl)c1 [Example 18, 1-[(1S)-1-(3-chlorophenyl)ethyl]-3-(3-fluoro-1-bicyclo[1.1.1]pentanyl)urea]
49 | O=C(NCc1cccc(F)c1)NC12CC(F)(C1)C2 [Example 19, 1-(3-fluoro-1-bicyclo[1.1.1]pentanyl)-3-[(3-fluorophenyl)methyl]urea]
77 | CC12CC(NC(=O)NCc3cccc(C(F)(F)F)c3)(C1)C2 [Example 20, 1-(3-methyl-1-bicyclo[1.1.1]pentanyl)-3-[[3-(trifluoromethyl)phenyl]methyl]urea]
67 | CC(C)C12CC(NC(=O)NCc3cccc(C(F)(F)F)c3)(C1)C2 [Example 21, 1-(3-propan-2-yl-1-bicyclo[1.1.1]pentanyl)-3-[[3-(trifluoromethyl)phenyl]methyl]urea]
74 | O=C(NCc1cccc(C(F)(F)F)c1)NC12CC(C(F)F)(C1)C2 [Example 22, 1-[3-(difluoromethyl)-1-bicyclo[1.1.1]pentanyl]-3-[[3-(trifluoromethyl)phenyl]methyl]urea]
79 | O=C(NCc1cccc(C(F)(F)F)c1)NC12CC(C1)C2 [Example 23, 1-(1-bicyclo[1.1.1]pentanyl)-3-[[3-(trifluoromethyl)phenyl]methyl]urea]
51 | C[C@H](NC(=O)NC12CC(F)(C1)C2)c1cccc(F)c1 [Example 24, 1-(3-fluoro-1-bicyclo[1.1.1]pentanyl)-3-[(1S)-1-(3-fluorophenyl)ethyl]urea]
45 | C[C@H](NC(=O)NC12CC(C1)C2)c1cccc(OC(F)(F)F)c1 [Example 25, 1-(1-bicyclo[1.1.1]pentanyl)-3-[(1S)-1-[3-(trifluoromethoxy)phenyl]ethyl]urea]
58 | C[C@H](NC(=O)NC12CC(C)(C1)C2)c1cccc(OC(F)(F)F)c1 [Example 26, 1-(3-methyl-1-bicyclo[1.1.1]pentanyl)-3-[(1S)-1-[3-(trifluoromethoxy)phenyl]ethyl]urea]
40 | CC(C)C12CC(NC(=O)N[C@@H](C)c3cccc(OC(F)(F)F)c3)(C1)C2 [Example 27, 1-(3-propan-2-yl-1-bicyclo[1.1.1]pentanyl)-3-[(1S)-1-[3-(trifluoromethoxy)phenyl]ethyl]urea]
75 | O=C(NCc1cccc(OC(F)(F)F)c1)NC12CC(C1)C2 [Example 28, 1-(1-bicyclo[1.1.1]pentanyl)-3-[[3-(trifluoromethoxy)phenyl]methyl]urea]
52 | O=C(NCc1cccc(OC(F)F)c1)NC12CC(C(F)(F)F)(C1)C2 [Example 29, 1-[[3-(difluoromethoxy)phenyl]methyl]-3-[3-(trifluoromethyl)-1-bicyclo[1.1.1]pentanyl]urea]
65 | O=C(NCc1cccc(C2COC2)c1)NC12CC(C(F)(F)F)(C1)C2 [Example 30, 1-[[3-(oxetan-3-yl)phenyl]methyl]-3-[3-(trifluoromethyl)-1-bicyclo[1.1.1]pentanyl]urea]
60 | O=C(NCc1cccc(C(F)F)c1)NC12CC(C(F)(F)F)(C1)C2 [Example 31, 1-[[3-(difluoromethyl)phenyl]methyl]-3-[3-(trifluoromethyl)-1-bicyclo[1.1.1]pentanyl]urea]
54 | C#Cc1cccc(CNC(=O)NC23CC(C(F)(F)F)(C2)C3)c1 [Example 32, 1-[(3-ethynylphenyl)methyl]-3-[3-(trifluoromethyl)-1-bicyclo[1.1.1]pentanyl]urea]

Source: patent US20250002452A1, “BICYCLOPENTANE DERIVATIVES” (ICAGEN, LLC, priority 2022, published 2025)
